Results as given in patent publication US20240391954A1, “MC4R AGONIST PEPTIDES” (The Regents of the University of Michigan, priority 2021, published 2024).
Like-named read-outs stand apart in the source and are kept apart here. Positions of bridges follow the written chain, without caps; N, C: chain ends. Non-standard residues stand in square brackets, D forms with d. Residues, ends and D or L forms follow the SMILES beside them. dPhe(4-Br) = N[C@H](Cc1ccc(Br)cc1)C(=O)O; NMeR = CN[C@@H](CCCNC(=N)N)C(=O)O; 3Pal = N[C@@H](Cc1cccnc1)C(=O)O; Cit = NC(=O)NCCC[C@H](N)C(=O)O; Nle = CCCC[C@H](N)C(=O)O; Orn = NCCC[C@H](N)C(=O)O; Aib = CC(C)(N)C(=O)O

Legend:
Mouse plasma stability = type: in vitro ADME; conditions: pooled mouse plasma, 37° C.
Method: FIG. 3. Results of plasma stability testing for control peptides. Compounds shown were incubated in mouse plasma at 37° C. at 1 μM concentrations. 40 ul aliquots were removed at the times indicated and the reactions stopped with the addition of 160 μL cold acetonitrile containing 200 ng/ml of peptide internal standard (IS). The incubation solution was centrifuged at 3500 rpm for 10 minutes to precipitate protein. LC/MS/MS analysis was used to determine the % peptide remaining.
Pooled mouse plasma was prepared and stored at −80° C, prior to use, 396 μL mouse plasma was incubated at 37° C. for 5 minutes in 1.5 mL microcentrifuge tubes. 4 μL of 100 μM test or control compound/peptide was added to each tube and incubated for 0.5, 15, 30, 60, 120, or 240 minutes. An aliquot of 40 μL of each reaction was stopped by the addition of 4 volume of cold acetonitrile containing 200 ng/mL of […] solution was centrifuged at 3500 rpm for 10 minutes to precipitate protein. The supernatant was used for LC/MS/MS analysis. The natural log peak area ratio (compound peak area/internal standard peak area) was plotted against time and the gradient of the line determined.

human MC3R = target: T1, human MC3R (Homo sapiens, UniProt P41968); test: split-luciferase cAMP sensor assay, agonist mode (measurement window 1), hMC3R; type: cell-based; conditions: for Emax / EC50: agonist mode; for Emax: read-out: MC3R cAMP % max activation; for MC4R selectivity vs MC3R: MC4R versus MC3R; for EC50: HEK-293 cells stably expressing hMC3R, read-out: MC3R cAMP EC50
T1 construct: expressed in transfected cells; host or cells: HEK-293 cells stably expressing the GScAMP22F split-luciferase cAMP sensor (parent reporter line from Promega); MC3R clone generated in-house, G418 selection
Summary of the method: (§1)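 EC50 values come from a four-parameter variable-slope fit of luminescence in measurement window 1, capturing direct peptide effects on receptor-expressing cells with a cAMP22f luciferase sensor. Cells were preloaded with 4% D-luciferin, serum-free medium; 20 μM forskolin normalized for cell number and transducer efficiency.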

[1] = Plasma protein binding (Centrifree ultrafiltration); type: in vitro ADME
Method: Solutions of test compound in DMSO were prepared at 1 mM, 100 uM and 10 uM, 5 ul of each solution of test compound was added to 495 uL plasma, and incubated at 25° C. for 5 min. Sample was added to a Centrifree® device, then centrifuged at 2000× g for 20 min to obtain desired filtrate volume. Initial plasma samples and ultrafiltrates were subjected to LC-MS/MS. % Free peptide=(concentration of ultrafiltrates/concentration of plasma)×100%. % Bound=100%−% Free

human MC4R = target: T2, human MC4R (Homo sapiens, UniProt P32245); test: split-luciferase cAMP sensor assay, agonist mode (measurement window 1), hMC4R; type: cell-based; conditions: for Emax: read-out: MC4R cAMP % max activation
T2 construct: host or cells: HEK-293 cells stably expressing the GScAMP22F split-luciferase cAMP sensor and hMC4R, G418 selection
Summary of the method: as §1

human MC1R = target: T3, human MC1R (Homo sapiens, UniProt Q01726); test: split-luciferase cAMP sensor assay, agonist mode, hMC1R; type: cell-based; conditions: MC4R versus MC1R
T3 construct: expressed in transfected cells; host or cells: HEK-293 cells stably expressing hMC1R and the GScAMP22F cAMP sensor
Summary of the method: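 HEK-293 cells stably expressing hMC1R and the GScAMP22F split-luciferase cAMP sensor, preloaded 120 min at 37° C with D-luciferin in serum-free medium. Peptide responses were taken as peak luminescence over 2-13 min minus 2-min baseline, normalized to the α-MSH ECmax. EC50 was obtained from a four-parameter variable-slope fit.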

[2] = % maximal activation, agonist mode

T3 sequence (Q01726 whole entry): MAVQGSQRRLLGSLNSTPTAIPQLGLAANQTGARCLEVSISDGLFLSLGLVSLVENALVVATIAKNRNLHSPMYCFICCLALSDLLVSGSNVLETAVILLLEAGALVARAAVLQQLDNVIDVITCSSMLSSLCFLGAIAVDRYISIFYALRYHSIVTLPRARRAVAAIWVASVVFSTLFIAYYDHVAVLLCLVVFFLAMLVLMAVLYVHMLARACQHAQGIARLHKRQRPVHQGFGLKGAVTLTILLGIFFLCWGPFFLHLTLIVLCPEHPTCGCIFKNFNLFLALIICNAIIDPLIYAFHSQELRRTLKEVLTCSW
T1 sequence (P41968 whole entry): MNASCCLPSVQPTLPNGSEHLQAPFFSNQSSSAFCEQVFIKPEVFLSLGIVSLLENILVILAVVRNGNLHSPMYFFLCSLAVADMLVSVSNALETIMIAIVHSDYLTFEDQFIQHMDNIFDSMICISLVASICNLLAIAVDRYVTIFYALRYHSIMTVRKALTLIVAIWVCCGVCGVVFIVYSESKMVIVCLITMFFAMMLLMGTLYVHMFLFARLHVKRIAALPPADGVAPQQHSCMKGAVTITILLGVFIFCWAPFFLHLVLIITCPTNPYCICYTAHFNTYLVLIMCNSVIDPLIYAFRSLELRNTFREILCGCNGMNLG
T2 sequence (P32245 whole entry): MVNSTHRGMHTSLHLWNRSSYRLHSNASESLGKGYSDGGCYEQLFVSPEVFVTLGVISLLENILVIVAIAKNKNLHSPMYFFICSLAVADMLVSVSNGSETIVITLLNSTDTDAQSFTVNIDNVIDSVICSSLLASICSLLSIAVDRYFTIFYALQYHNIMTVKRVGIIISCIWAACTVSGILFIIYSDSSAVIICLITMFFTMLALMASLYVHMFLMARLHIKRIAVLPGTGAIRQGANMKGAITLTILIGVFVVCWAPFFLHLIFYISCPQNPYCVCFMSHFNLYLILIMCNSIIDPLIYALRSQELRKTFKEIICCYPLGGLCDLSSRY

Structure (SMILES)	Emax (human MC3R; % maximal activation) [%]	MC4R selectivity vs MC3R (human MC3R)	Emax (human MC4R; [2]) [%]	MC4R selectivity vs MC1R (human MC1R)	also measured
CC(=O)N[C@@H](CCCNC(=N)N)C(=O)N[C@H]1CSSC[C@@H](C(N)=O)NC(=O)[C@@H](Cc2c[nH]c3ccccc23)NC(=O)[C@H](CCCNC(=N)N)NC(=O)[C@@H](Cc2ccc(Br)cc2)NC(=O)[C@H](CCCNC(=N)N)NC(=O)C(C)(C)NC1=O [CTX-1246, Arg-cyclo(Cys-Aib-Arg-D-Phe(4-Br)-Arg-D-Trp-Cys)] (Ac-RC[Aib]R[dPhe(4-Br)]R[dW]C-NH2; disulfide 2-8 (inferred))	–	–	–	–	half-life at 1 µM (Mouse plasma stability): > 240 min; Emax (human MC3R; hMC3R stable cell line): 21%; fraction unbound at 5 min, 0.1 µM [1]: 0.27; fraction unbound at 5 min, 1 µM [1]: 0.56; fraction unbound at 5 min, 10 µM [1]: 0.57
COc1ccc(C[C@H]2NC(=O)[C@H](CCCNC(=N)N)NC(=O)[C@@H](C)NC(=O)[C@@H](NC(=O)[C@H](CCCNC(=N)N)NC(C)=O)CSSC[C@@H](C(N)=O)NC(=O)[C@@H](Cc3c[nH]c4ccccc34)NC(=O)[C@H](CCCNC(=N)N)NC2=O)cc1 [CTX-1238, Arg-cyclo(Cys-D-Ala-Arg-D-Tyr(O-Me)-Arg-D-Trp-Cys)] (Ac-RC[dA]R[dY](Me)R[dW]C-NH2; disulfide 2-8 (inferred))	–	–	–	–	half-life at 1 µM (Mouse plasma stability): 172 min; Emax (human MC3R; hMC3R stable cell line): 21%; MC4R selectivity vs MC1R (human MC4R): 0.44; MC4R selectivity vs MC3R (human MC4R): 0.49; Emax (human MC4R; agonist mode, hMC4R stable cell line): 79%; fraction unbound at 5 min, 0.1 µM [1]: 0.47; fraction unbound at 5 min, 1 µM [1]: 0.53; fraction unbound at 5 min, 10 µM [1]: 0.59
CC(=O)N[C@H]1CSSC[C@@H](C(N)=O)NC(=O)[C@H](Cc2ccccc2)NC(=O)[C@H](CCCNC(=N)N)NC(=O)[C@@H](Cc2ccccc2)NC(=O)[C@H](CCCNC(N)=O)NC(=O)CNC1=O [CTX-1639, cyclo(Cys-Gly-Cit-D-Phe-Arg-Phe-Cys)] (Ac-CG[Cit][dF]RFC-NH2; disulfide 1-7 (inferred))	44	2.82	88	8.32	–
CC(=O)N[C@@H](CCCNC(=N)N)C(=O)N[C@H]1CSSC[C@@H](C(N)=O)NC(=O)[C@H](Cc2ccccc2)NC(=O)[C@H](CCCNC(=N)N)NC(=O)[C@@H](Cc2ccccc2)NC(=O)[C@H](CCCN)NC(=O)C(C)(C)NC1=O [CTX-1602, Arg-cyclo(Cys-Aib-Orn-D-Phe-Arg-Phe-Cys)] (Ac-RC[Aib][Orn][dF]RFC-NH2; disulfide 2-8)	80	3.44	97	3.65	–
CCCC[C@H](NC(=O)[C@H](CCCNC(=N)N)NC(C)=O)C(=O)N[C@H]1CSSC[C@@H](C(N)=O)NC(=O)[C@H](Cc2c[nH]c3ccccc23)NC(=O)[C@H](CCCNC(=N)N)NC(=O)[C@@H](Cc2ccccc2)NC(=O)[C@H](CCCN)NC1=O [CTX-1617, Arg-Nle-cyclo(Cys-Orn-D-Phe-Arg-Trp-Cys)] (Ac-R[Nle]C[Orn][dF]RWC-NH2; disulfide 3-8)	102	11	102	1.75	–
CC(=O)N[C@@H](CCCNC(=N)N)C(=O)N[C@H]1CSSC[C@@H](C(N)=O)NC(=O)[C@H](Cc2c[nH]c3ccccc23)NC(=O)[C@H](CCCNC(=N)N)NC(=O)[C@@H](Cc2ccccc2)NC(=O)[C@H](CCCNC(N)=O)NC(=O)[C@H](C)NC1=O [CTX-1287, Arg-cyclo(Cys-Ala-Cit-D-Phe-Arg-Trp-Cys)] (Ac-RCA[Cit][dF]RWC-NH2; disulfide 2-8 (inferred))	43	66	94	281	–
CC(=O)N[C@@H](CCCNC(=N)N)C(=O)N[C@H]1CSSC[C@@H](C(N)=O)NC(=O)[C@@H](Cc2c[nH]c3ccccc23)NC(=O)[C@H](CCCNC(=N)N)N(C)C(=O)[C@@H](Cc2ccccc2)NC(=O)[C@H](CCCNC(=N)N)NC(=O)[C@@H](C)NC1=O [CTX-1284, Arg-cyclo(Cys-D-Ala-Arg-D-Phe-N-Me-Arg-D-Trp-Cys)] (Ac-RC[dA]R[dF][NMeR][dW]C-NH2; disulfide 2-8)	45	8.11	91	0.15	EC50 (human MC3R): 1040 nM
CCCC[C@H](NC(=O)[C@H](CCCNC(=N)N)NC(C)=O)C(=O)N[C@H]1CSSC[C@@H](C(N)=O)NC(=O)[C@H](Cc2c[nH]c3ccccc23)NC(=O)[C@H](CCCNC(=N)N)NC(=O)[C@@H](Cc2ccccc2)NC(=O)[C@H](Cc2cccnc2)NC1=O [CTX-1620, Arg-Nle-cyclo(Cys-Pal(3′)-D-Phe-Arg-Trp-Cys)] (Ac-R[Nle]C[3Pal][dF]RWC-NH2; disulfide 3-8 (inferred))	39	12	91	47	–
CC(=O)N[C@@H](CCCNC(=N)N)C(=O)N[C@H]1CSSC[C@@H](C(N)=O)NC(=O)[C@@H](Cc2c[nH]c3ccccc23)NC(=O)[C@H](CCCNC(=N)N)NC(=O)[C@@H](Cc2ccccc2)NC(=O)[C@H](CCCNC(N)=O)NC(=O)[C@@H](C)NC1=O [CTX-1286, Arg-cyclo(Cys-D-Ala-Cit-D-Phe-Arg-D-Trp-Cys)] (Ac-RC[dA][Cit][dF]R[dW]C-NH2; disulfide 2-8)	24	2.16	91	3.4	–
CC(=O)N[C@@H](CCCNC(=N)N)C(=O)N[C@H]1CSSC[C@@H](C(N)=O)NC(=O)[C@H](Cc2c[nH]c3ccccc23)NC(=O)[C@H](CCCNC(=N)N)NC(=O)[C@@H](Cc2ccccc2)NC(=O)[C@H](CCCNC(N)=O)NC(=O)C(C)(C)NC1=O [CTX-1289, Arg-cyclo(Cys-Aib-Cit-D-Phe-Arg-Trp-Cys)]	21	30	93	130	–
CC(=O)N[C@H]1CSSC[C@@H](C(N)=O)NC(=O)[C@H](Cc2c[nH]c3ccccc23)NC(=O)[C@H](CCCNC(=N)N)NC(=O)[C@@H](Cc2ccccc2)NC(=O)[C@H](CCCNC(=N)N)NC(=O)CNC1=O [CTX-1629, cyclo(Cys-Gly-Arg-D-Phe-Arg-Trp-Cys)] (Ac-CGR[dF]RWC-NH2; disulfide 1-7)	83	19	102	15	EC50 (human MC3R): 13 nM
C[C@H]1NC(=O)CSC[C@@H](C(N)=O)NC(=O)[C@H](Cc2ccccc2)NC(=O)[C@H](CCCNC(=N)N)NC(=O)[C@@H](Cc2ccccc2)NC(=O)[C@H](CCCNC(N)=O)NC1=O [CTX-1658, Thioether-cyclo(D-Ala-Cit-D-Phe-Arg-Phe-Cys)] ({CH2CO}-[dA][Cit][dF]RFC-NH2; thioether N-6)	–	Not active	–	Not active	EC50 (human MC3R): > 10000 nM; EC50 (human MC4R; HEK-293 cells stably expressing hMC4R, agonist mode, read-out: MC4R cAMP EC50): > 10 µM
N=C(N)NCCC[C@@H]1NC(=O)CNC(=O)CSC[C@@H](C(N)=O)NC(=O)[C@H](Cc2ccccc2)NC(=O)[C@H](CCCNC(=N)N)NC(=O)[C@@H](Cc2ccccc2)NC1=O [CTX-1654, Thioether-cyclo(Gly-Arg-D-Phe-Arg-Phe-Cys)] ({CH2CO}-GR[dF]RFC-NH2; thioether N-6)	43	5.41	81	0.62	–
